This data set is described as follows: method code SF-AS, from DOI: 10.1177/1934578x0700201005. The settings on record: pH 7.4.

We go through 13 molecules from the SangsterLogP compilation.

The logD is lipophilicity at a set pH, counting ionised and neutral species. Low readings indicate lower lipophilicity, high ones higher lipophilicity.

Consider `O=c1cc(-c2ccccc2)oc2c(O)cccc12`, for which the logD is 3.03.
To `COc1ccc2oc(-c3ccccc3)cc(=O)c2c1` belongs 3.22; to `COc1cccc2oc(-c3ccccc3)cc(=O)c12`, 2.98.
Then `O=c1cc(-c2cccc(O)c2)oc2ccccc12`, with 3.03.
Then `COc1ccc2c(=O)cc(-c3ccccc3)oc2c1O`, with 2.9; and `O=c1c(O)c(-c2ccccc2)oc2ccccc12`, with 3.52.
Turning to `COc1ccccc1-c1cc(=O)c2ccccc2o1`, the logD came out at 3.14.
Take `COc1cccc(-c2cc(=O)c3ccccc3o2)c1`: the logD turned out to be 3.26.
To `COc1ccc2c(=O)cc(-c3ccccc3)oc2c1` belongs 3.12; to `O=c1cc(-c2ccccc2O)oc2ccccc12`, 3.01; to `COc1ccc(-c2cc(=O)c3ccccc3o2)cc1`, 3.21.
To `O=c1cc(-c2ccccc2)oc2cccc(O)c12` belongs 3.39; to `COc1c(-c2ccccc2)oc2ccccc2c1=O`, 3.18.
